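Following 48 hours of exposure in 96-well plates, responses at five concentrations were used to interpolate endpoints linearly. TGI is the concentration that stops growth completely.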
Key:
Assay in all cases: NCI anticancer screen, dose series, 48 h
[1] = system: M14 melanoma
[2] = system: SNB-19 CNS
[3] = system: SK-OV-3 ovarian
[4] = system: SF-539 CNS
[5] = system: HCC-2998 colon
[6] = system: KM12 colon
[7] = system: UACC-257 melanoma
[8] = system: RPMI-8226 leukemia
[9] = system: NCI-H23 lung
[10] = system: NCI-H226 lung
[11] = system: OVCAR-4 ovarian
[12] = system: NCI/ADR-RES ovarian
[13] = system: CAKI-1 renal

CC(C)(C)OC(=O)N(CCCCNC(=O)OCc1ccccc1)CCCNC(=O)OCc1ccccc1
TGI [1]: > 100 µM | TGI [2]: > 100 µM | TGI [3]: > 100 µM | TGI [4]: > 100 µM | TGI [5]: > 100 µM | TGI [6]: > 100 µM | TGI [7]: > 100 µM | TGI [8]: > 100 µM | TGI [9]: > 100 µM | TGI [10]: > 100 µM | TGI [11]: > 100 µM | TGI [12]: > 100 µM

[N-]=[N+]=NC(c1cn(C2CC(O)C(CO)O2)c(=O)[nH]c1=O)C(Br)Br (stereo not drawn)
TGI [1]: > 100 µM | TGI [2]: > 100 µM | TGI [3]: > 100 µM | TGI [4]: > 100 µM | TGI [13]: > 100 µM | TGI [5]: > 100 µM | TGI [6]: > 100 µM | TGI [8]: > 100 µM | TGI [9]: > 100 µM | TGI [10]: > 100 µM

O=CNNC(=O)Nc1cccc2ccccc12
TGI [1]: > 100 µM | TGI [2]: > 100 µM | TGI [3]: > 100 µM | TGI [4]: > 100 µM | TGI [5]: > 100 µM | TGI [6]: > 100 µM | TGI [7]: > 100 µM | TGI [8]: > 100 µM | TGI [9]: > 100 µM | TGI [10]: > 100 µM | TGI [11]: > 100 µM | TGI [12]: > 100 µM

O=C(O)C(O)C(O)C(=O)O (stereo not drawn)
TGI [1]: > 100 µM | TGI [2]: > 100 µM | TGI [3]: > 100 µM | TGI [4]: > 100 µM | TGI [13]: > 100 µM | TGI [6]: > 100 µM | TGI [7]: > 100 µM | TGI [8]: > 100 µM | TGI [10]: > 100 µM | TGI [11]: > 100 µM | TGI [12]: > 100 µM

O=C(OC1C2OC(=O)c3cc(O)c(O)c(O)c3Oc3cc4c(c(O)c3O)-c3c(cc(O)c(O)c3O)C(=O)OCC3OC(O)C(OC(=O)c5cc(O)c(O)c(O)c5Oc5cc6c(c(O)c5O)-c5c(cc(O)c(O)c5O)C(=O)OC1C(COC6=O)OC2O)C(OC(=O)c1cc(O)c(O)c(O)c1)C3OC4=O)c1cc(O)c(O)c(O)c1 (stereo not drawn)
TGI [1]: > 100 µM | TGI [2]: 51.6 µM | TGI [3]: 44.4 µM | TGI [4]: 65.6 µM | TGI [13]: > 100 µM | TGI [6]: 16.2 µM | TGI [7]: > 100 µM | TGI [8]: 50.1 µM | TGI [9]: 62.6 µM | TGI [10]: > 100 µM | TGI [11]: 47.8 µM | TGI [12]: > 100 µM

Cc1nc(C)c(N2CCN(S(=O)(=O)N(Cc3ccccc3)Cc3ccccc3)CC2)c(=O)[nH]1
TGI [1]: > 100 µM | TGI [2]: 27.6 µM | TGI [3]: > 54.2 µM | TGI [4]: 42.5 µM | TGI [13]: > 47.9 µM | TGI [5]: > 100 µM | TGI [6]: > 100 µM | TGI [7]: > 100 µM | TGI [8]: > 100 µM | TGI [9]: 56.5 µM | TGI [11]: > 100 µM | TGI [12]: > 100 µM

CCCC(CCC(N)=O)(CCC(N)=O)[N+](=O)[O-]
TGI [1]: > 100 µM | TGI [2]: > 100 µM | TGI [3]: > 100 µM | TGI [4]: > 100 µM | TGI [13]: > 100 µM | TGI [6]: > 100 µM | TGI [7]: > 100 µM | TGI [8]: > 100 µM | TGI [9]: > 100 µM | TGI [10]: > 100 µM | TGI [12]: > 100 µM

O=C(O)CCC(=O)c1ccc2c(c1)C(C(=O)O)CC2 (stereo not drawn)
TGI [1]: > 100 µM | TGI [2]: > 100 µM | TGI [3]: > 100 µM | TGI [4]: > 100 µM | TGI [5]: > 100 µM | TGI [6]: > 100 µM | TGI [7]: > 100 µM | TGI [8]: > 100 µM | TGI [9]: > 100 µM | TGI [10]: > 100 µM | TGI [11]: > 100 µM | TGI [12]: > 100 µM

CN(C)c1ccc(C=NCC2CCCN3CCCCC23)cc1 (stereo not drawn)
TGI [1]: > 100 µM | TGI [2]: > 100 µM | TGI [3]: > 100 µM | TGI [13]: > 100 µM | TGI [5]: > 100 µM | TGI [6]: > 100 µM | TGI [7]: > 100 µM | TGI [9]: > 100 µM | TGI [10]: > 100 µM | TGI [12]: > 100 µM

O=C1C(Br)=C(c2ccccc2)O/C1=C/C(=O)c1ccc(Br)cc1
TGI [1]: > 100 µM | TGI [2]: > 100 µM | TGI [4]: > 100 µM | TGI [13]: 35 µM | TGI [5]: > 100 µM | TGI [6]: > 100 µM | TGI [8]: 62.7 µM | TGI [9]: > 100 µM | TGI [10]: > 100 µM | TGI [11]: > 100 µM

N#CN/C(N)=N/C/N=C(\N)NC#N
TGI [1]: > 100 µM | TGI [2]: > 100 µM | TGI [3]: > 100 µM | TGI [4]: > 100 µM | TGI [13]: > 100 µM | TGI [5]: > 100 µM | TGI [6]: > 100 µM | TGI [7]: > 100 µM | TGI [8]: > 100 µM | TGI [9]: > 100 µM | TGI [10]: > 100 µM | TGI [11]: > 100 µM

CN1CN(c2ccccc2)C2(CCN(CC(C)(c3ccc(F)cc3)C3OCCCO3)CC2)C1=O (stereo not drawn)
TGI [1]: 34.5 µM | TGI [2]: 42 µM | TGI [3]: 67.1 µM | TGI [4]: 26.5 µM | TGI [13]: 65.3 µM | TGI [6]: 31.1 µM | TGI [7]: 31.5 µM | TGI [8]: 27.3 µM | TGI [9]: 32.9 µM | TGI [10]: 42.7 µM | TGI [12]: 26.9 µM

COc1ccc(C(=O)O[C@H]2[C@@H]3C=CO[C@@H](OC4OC(CO)C(O)C(O)C4O)[C@@H]3[C@@]3(CO)O[C@@H]23)cc1O (stereo partly drawn)
TGI [1]: > 100 µM | TGI [2]: > 100 µM | TGI [3]: > 100 µM | TGI [4]: > 100 µM | TGI [13]: > 100 µM | TGI [5]: > 100 µM | TGI [6]: > 100 µM | TGI [7]: > 100 µM | TGI [8]: > 100 µM | TGI [9]: > 100 µM | TGI [11]: > 100 µM

Cc1cnc2sn(-c3ccc([N+](=O)[O-])cc3)c(=O)c2c1
TGI [1]: > 100 µM | TGI [2]: > 100 µM | TGI [3]: 81.4 µM | TGI [5]: > 100 µM | TGI [6]: > 100 µM | TGI [8]: > 100 µM | TGI [9]: > 100 µM | TGI [10]: > 100 µM | TGI [11]: > 100 µM | TGI [12]: > 100 µM

CCC1(N=[N+]=[N-])C(=O)c2ccccc2N(C)C1=O (stereo not drawn)
TGI [1]: > 100 µM | TGI [2]: > 100 µM | TGI [3]: > 100 µM | TGI [4]: > 100 µM | TGI [13]: > 100 µM | TGI [5]: > 100 µM | TGI [6]: > 100 µM | TGI [7]: > 100 µM | TGI [9]: > 100 µM | TGI [11]: > 100 µM

CO/N=C(/C)c1cccc(Nc2nc3ccccc3c3[nH]c4ccccc4c23)c1
TGI [1]: 21.1 µM | TGI [2]: 26.7 µM | TGI [3]: 40.3 µM | TGI [4]: 28.1 µM | TGI [13]: 24.2 µM | TGI [6]: 14.2 µM | TGI [7]: 26.5 µM | TGI [9]: 23.1 µM | TGI [10]: 33.2 µM | TGI [12]: 25.1 µM

O=C(NCCN1CCOCC1)c1cn2c(ccc3sc4ccccc4c(=O)c32)n1
TGI [2]: > 100 µM | TGI [4]: > 100 µM | TGI [13]: > 100 µM | TGI [5]: 54.1 µM | TGI [6]: > 100 µM | TGI [7]: > 100 µM | TGI [8]: 41.2 µM | TGI [9]: > 100 µM | TGI [10]: > 100 µM | TGI [12]: > 100 µM

Cc1nc(CC#N)n[nH]1
TGI [1]: > 100 µM | TGI [2]: > 100 µM | TGI [3]: > 100 µM | TGI [4]: > 100 µM | TGI [5]: > 100 µM | TGI [6]: > 100 µM | TGI [7]: > 100 µM | TGI [8]: > 100 µM | TGI [9]: > 100 µM | TGI [11]: > 100 µM | TGI [12]: > 100 µM

NC1=C(NC(=O)Cc2ccccc2F)C(=O)c2ccccc2C1=O
TGI [1]: > 100 µM | TGI [2]: > 100 µM | TGI [4]: 62 µM | TGI [13]: > 100 µM | TGI [5]: > 100 µM | TGI [6]: > 100 µM | TGI [7]: > 100 µM | TGI [8]: > 100 µM | TGI [9]: > 100 µM | TGI [10]: > 100 µM | TGI [11]: > 100 µM

From PubChem BioAssay (NCI)
